# From ChEMBL document CHEMBL1141668, “Synthesis and biological activity of imidazopyridine anticoccidial agents: Part II” (Eur J Med Chem, 2008)
# How the values were obtained:
# [1] = target: cGMP-dependent protein kinase (Eimeria tenella, UniProt Q8MMZ8); test: Inhibition of Eimeria tenella cGMP-dependent protein kinase
# Eimeria tenella [2] = test: Anticoccidial activity against Eimeria tenella in chickens assessed as reduction of oocysts at 25 ppm measured after 8 days by ExMAC assay relative to untreated control; assay type: functional; parameters: scale not given: the % may be the effect or the level left
# Eimeria acervulina [3] = test: Anticoccidial activity against Eimeria acervulina in chickens assessed as reduction of oocysts at 25 ppm measured after 8 days by ExMAC assay relative to untreated control; assay type: functional; parameters: scale not given: the % may be the effect or the level left
# Eimeria mitis [4] = test: Anticoccidial activity against Eimeria mitis in chickens assessed as reduction of oocysts at 25 ppm measured after 8 days by ExMAC assay relative to untreated control; assay type: functional; parameters: scale not given: the % may be the effect or the level left
# Eimeria maxima [5] = test: Anticoccidial activity against Eimeria maxima in chickens assessed as reduction of oocysts at 25 ppm measured after 8 days by ExMAC assay relative to untreated control; assay type: functional; parameters: scale not given: the % may be the effect or the level left
# Eimeria tenella [6] = test: Anticoccidial activity against Eimeria tenella in chickens assessed as reduction of oocysts at 6.25 ppm measured after 8 days by ExMAC assay relative to untreated control; assay type: functional; parameters: scale not given: the % may be the effect or the level left
# Eimeria tenella [7] = test: Anticoccidial activity against Eimeria tenella in chickens assessed as reduction of oocysts at 12.5 ppm measured after 8 days by ExMAC assay relative to untreated control; assay type: functional; parameters: scale not given: the % may be the effect or the level left
# Eimeria acervulina [8] = test: Anticoccidial activity against Eimeria acervulina in chickens assessed as reduction of oocysts at 6.25 ppm measured after 8 days by ExMAC assay relative to untreated control; assay type: functional; parameters: scale not given: the % may be the effect or the level left
# Eimeria acervulina [9] = test: Anticoccidial activity against Eimeria acervulina in chickens assessed as reduction of oocysts at 12.5 ppm measured after 8 days by ExMAC assay relative to untreated control; assay type: functional; parameters: scale not given: the % may be the effect or the level left
# Eimeria mitis [10] = test: Anticoccidial activity against Eimeria mitis in chickens assessed as reduction of oocysts at 6.25 ppm measured after 8 days by ExMAC assay relative to untreated control; assay type: functional; parameters: scale not given: the % may be the effect or the level left
# Eimeria mitis [11] = test: Anticoccidial activity against Eimeria mitis in chickens assessed as reduction of oocysts at 12.5 ppm measured after 8 days by ExMAC assay relative to untreated control; assay type: functional; parameters: scale not given: the % may be the effect or the level left
# Eimeria maxima [12] = test: Anticoccidial activity against Eimeria maxima in chickens assessed as reduction of oocysts at 6.25 ppm measured after 8 days by ExMAC assay relative to untreated control; assay type: functional; parameters: scale not given: the % may be the effect or the level left
# Eimeria maxima [13] = test: Anticoccidial activity against Eimeria maxima in chickens assessed as reduction of oocysts at 12.5 ppm measured after 8 days by ExMAC assay relative to untreated control; assay type: functional; parameters: scale not given: the % may be the effect or the level left
# Chain of cGMP-dependent protein kinase (Q8MMZ8 whole entry): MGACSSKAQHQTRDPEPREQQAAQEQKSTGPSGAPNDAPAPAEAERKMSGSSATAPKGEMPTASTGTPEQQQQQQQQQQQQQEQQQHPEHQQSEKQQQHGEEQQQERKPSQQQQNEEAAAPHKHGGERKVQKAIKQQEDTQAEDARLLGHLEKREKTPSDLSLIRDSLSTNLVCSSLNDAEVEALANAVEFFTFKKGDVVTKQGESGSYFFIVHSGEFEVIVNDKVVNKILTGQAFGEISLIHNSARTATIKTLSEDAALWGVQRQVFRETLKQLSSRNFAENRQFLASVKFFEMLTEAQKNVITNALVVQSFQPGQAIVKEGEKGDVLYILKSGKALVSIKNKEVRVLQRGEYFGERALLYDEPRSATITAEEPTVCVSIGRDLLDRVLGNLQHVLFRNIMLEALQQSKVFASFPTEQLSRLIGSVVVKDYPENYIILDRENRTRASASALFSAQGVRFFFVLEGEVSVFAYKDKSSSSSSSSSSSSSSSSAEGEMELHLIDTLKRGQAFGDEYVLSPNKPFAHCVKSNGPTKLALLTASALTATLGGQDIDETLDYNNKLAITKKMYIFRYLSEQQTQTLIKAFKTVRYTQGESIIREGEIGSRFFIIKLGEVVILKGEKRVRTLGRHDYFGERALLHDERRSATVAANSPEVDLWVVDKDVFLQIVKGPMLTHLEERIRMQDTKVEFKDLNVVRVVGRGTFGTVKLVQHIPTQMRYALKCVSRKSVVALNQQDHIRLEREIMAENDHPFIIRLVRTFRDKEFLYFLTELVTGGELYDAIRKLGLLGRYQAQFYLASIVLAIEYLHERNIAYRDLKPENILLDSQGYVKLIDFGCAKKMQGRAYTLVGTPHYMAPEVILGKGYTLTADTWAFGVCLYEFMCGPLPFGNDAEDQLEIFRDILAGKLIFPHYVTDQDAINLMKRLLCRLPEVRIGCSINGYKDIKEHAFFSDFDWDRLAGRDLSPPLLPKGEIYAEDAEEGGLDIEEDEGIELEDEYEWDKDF
SMILES,IC50 [1] [nM],Activity (Eimeria tenella [2]) [%],Activity (Eimeria acervulina [3]) [%],Activity (Eimeria mitis [4]) [%],Activity (Eimeria maxima [5]) [%],Activity (Eimeria tenella [6]) [%],Activity (Eimeria tenella [7]) [%],Activity (Eimeria acervulina [8]) [%],Activity (Eimeria acervulina [9]) [%],Activity (Eimeria mitis [10]) [%],Activity (Eimeria mitis [11]) [%],Activity (Eimeria maxima [12]) [%],Activity (Eimeria maxima [13]) [%]
CN(C)Cc1ccn2c(-c3ccnc(N)n3)c(-c3ccc(F)cc3)nc2c1,–,80,80,80,80,80,80,80,80,<50,80,<50,80
CNC(=O)c1ccn2c(-c3ccnc(N)n3)c(-c3ccc(F)cc3)nc2c1,3.1,<50,<50,<50,50,–,–,–,–,–,–,–,–
CN1CCN(c2ccn3c(-c4ccnc(N)n4)c(-c4ccc(F)cc4)nc3c2)CC1,0.23,80,<50,80,100,<50,80,<50,<50,50,50,<50,<50
CN(CC#N)Cc1ccn2c(-c3ccnc(N)n3)c(-c3ccc(F)cc3)nc2c1,1.33,80,80,<50,<50,–,–,–,–,–,–,–,–
CN(CCO)Cc1ccn2c(-c3ccnc(N)n3)c(-c3ccc(F)cc3)nc2c1,0.4,–,–,–,–,–,<50,–,<50,–,<50,–,<50
CN(C)CCCc1ccn2c(-c3ccnc(N)n3)c(-c3ccc(F)cc3)nc2c1,0.27,80,80,80,100,<50,80,<50,80,<50,<50,<50,<50
CN1CCN(Cc2ccn3c(-c4ccnc(N)n4)c(-c4ccc(F)cc4)nc3c2)CC1,2.2,80,<50,80,80,–,<50,–,<50,–,<50,–,<50
COCCN(C)Cc1ccn2c(-c3ccnc(N)n3)c(-c3ccc(F)cc3)nc2c1,0.26,–,–,–,–,–,<50,–,<50,–,<50,–,<50
C#CCN(C)Cc1ccn2c(-c3ccnc(N)n3)c(-c3ccc(F)cc3)nc2c1,0.65,–,–,–,–,–,<50,–,<50,–,<50,–,<50
CC(C)(CN)c1ccn2c(-c3ccnc(N)n3)c(-c3ccc(F)cc3)nc2c1,0.26,50,<50,50,<50,–,–,–,–,–,–,–,–
CC(C)(C)NCc1ccn2c(-c3ccnc(N)n3)c(-c3ccc(F)cc3)nc2c1,0.35,–,–,–,–,–,–,–,–,–,–,–,–
CN(C)c1ccn2c(-c3ccnc(N)n3)c(-c3ccc(F)cc3)nc2c1,3,80,80,<50,80,<50,50,<50,<50,<50,<50,<50,80
CCC(CN(C)C)c1ccn2c(-c3ccnc(N)n3)c(-c3ccc(F)cc3)nc2c1 (stereo not given),0.4,100,<50,<50,100,–,–,–,–,–,–,–,–
CN(C)CC(F)c1ccn2c(-c3ccnc(N)n3)c(-c3ccc(F)cc3)nc2c1 (stereo not given),0.59,100,100,100,100,80,80,<50,80,<50,50,100,100
CN(C)C(=N)c1ccn2c(-c3ccnc(N)n3)c(-c3ccc(F)cc3)nc2c1,2.5,<50,50,<50,<50,–,–,–,–,–,–,–,–

# Further lines, with some results ahead:
IC50 [1] [nM],SMILES,Activity (Eimeria tenella [2]) [%],Activity (Eimeria acervulina [3]) [%],Activity (Eimeria mitis [4]) [%],Activity (Eimeria maxima [5]) [%],Activity (Eimeria tenella [6]) [%],Activity (Eimeria tenella [7]) [%],Activity (Eimeria acervulina [8]) [%],Activity (Eimeria acervulina [9]) [%],Activity (Eimeria mitis [10]) [%],Activity (Eimeria mitis [11]) [%],Activity (Eimeria maxima [12]) [%],Activity (Eimeria maxima [13]) [%]
0.046,Nc1nccc(-c2c(-c3ccc(F)cc3)nc3cc(C4CCNCC4)ccn23)n1,<50,<50,<50,100,–,–,–,–,–,–,–,–
0.07,Nc1nccc(-c2c(-c3ccc(F)cc3)nc3cc(C4CCN(CCc5ccccc5)CC4)ccn23)n1,–,–,–,–,–,<50,–,<50,–,<50,–,–
0.065,CCCC(c1ccn2c(-c3ccnc(N)n3)c(-c3ccc(F)cc3)nc2c1)N(C)C (stereo not given),100,100,100,100,<50,<50,80,80,<50,<50,100,<50
0.13,CCC(C)CN1CCC(c2ccn3c(-c4ccnc(N)n4)c(-c4ccc(F)cc4)nc3c2)CC1 (stereo not given),–,–,–,–,–,80,–,80,–,<50,–,–
0.11,CC(C)(C)CCN1CCC(c2ccn3c(-c4ccnc(N)n4)c(-c4ccc(F)cc4)nc3c2)CC1,–,–,–,–,–,80,–,<50,–,<50,–,–
0.044,Nc1nccc(-c2c(-c3ccc(F)cc3)nc3cc(C4CCN(CCO)CC4)ccn23)n1,99,99,<50,50,99,99,<50,50,<50,80,<50,80
0.12,CC(C)CN1CCC(c2ccn3c(-c4ccnc(N)n4)c(-c4ccc(F)cc4)nc3c2)CC1,80,100,80,80,50,100,80,80,<50,80,<50,100
0.2,CN(C)CC(C)(C)c1ccn2c(-c3ccnc(N)n3)c(-c3ccc(F)cc3)nc2c1,100,80,80,<50,<50,80,<50,80,<50,<50,<50,<50
0.13,CCCCCCN1CCC(c2ccn3c(-c4ccnc(N)n4)c(-c4ccc(F)cc4)nc3c2)CC1,–,–,–,–,–,50,–,<50,–,<50,–,–
0.11,Nc1nccc(-c2c(-c3ccc(F)cc3)nc3cc(C4CCN(Cc5ccccc5)CC4)ccn23)n1,80,<50,<50,100,<50,80,<50,80,<50,<50,80,80
0.065,Nc1nccc(-c2c(-c3ccc(F)cc3)nc3cc(C4CCN(CCCO)CC4)ccn23)n1,100,80,<50,<50,<50,100,50,50,<50,<50,<50,<50
0.095,Nc1nccc(-c2c(-c3ccc(F)cc3)nc3cc(C4CCN(CC5CC5)CC4)ccn23)n1,100,100,80,80,80,100,80,80,80,80,80,80
0.12,CCCC(C)CN1CCC(c2ccn3c(-c4ccnc(N)n4)c(-c4ccc(F)cc4)nc3c2)CC1 (stereo not given),–,–,–,–,–,80,–,<50,–,<50,–,–
